Measured values reported in patent US20090088473A1, “METHOD FOR SCREENING OF PROSTAGLANDIN COMPOUNDS COMPRISING AN OPTIMAL FORMULATION FOR THE ENHANCEMENT OF HAIR GROWTH AND THE STIMULATION OF FOLLICULAR ANAGEN AND FORMULATIONS RESULTING THEREFROM” (CAYMAN CHEMICAL COMPANY, priority 2007, published 2009).

Biological target: T1, human FP receptor (Homo sapiens, UniProt P43088)
T1 construct: expressed in transfected cells; host or cells: HEK 293 (stably transfected)
Assay: Total intracellular inositol phosphate (InsP) accumulation in HEK 293 cells stably transfected with the human FP receptor
Assay type: cell-based
Settings: FIG. 2; HEK 293 cells stably transfected with human FP receptor; free acid forms; rank among the prostaglandin analogs tested
Excerpt: An exemplary assay method may be described that correlates the ability of test compounds (FP receptor agonists) to induce hair growth with the ability of an established FP receptor agonist, in this case Bimatoprost free acid, to activate the FP receptor. The dose-dependent release of Inositol triphosphate by test compounds compared to the dose-dependent response of Bimatoprost free acid, an established eye lash-enhancing compound, may provide a structure activity relationship that may be used to predict the degree to which a given compound will promote eye lash growth.

T1 sequence (P43088 whole entry): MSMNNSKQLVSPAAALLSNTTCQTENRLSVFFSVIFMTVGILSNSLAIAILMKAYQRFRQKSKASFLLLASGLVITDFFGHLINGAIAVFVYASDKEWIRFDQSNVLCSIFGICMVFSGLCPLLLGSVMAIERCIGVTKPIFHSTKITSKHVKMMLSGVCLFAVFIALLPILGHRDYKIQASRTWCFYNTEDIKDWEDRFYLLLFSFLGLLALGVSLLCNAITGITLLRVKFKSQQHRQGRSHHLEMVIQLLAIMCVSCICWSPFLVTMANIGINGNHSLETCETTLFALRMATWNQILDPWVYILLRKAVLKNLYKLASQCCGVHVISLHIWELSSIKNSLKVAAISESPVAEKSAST

| dose-dependent release of inositol triphosphate | SMILES |
| --- | --- |
| highest | O=C(O)CCCC=CCC1C(O)CC(O)C1C=CC(O)COc1ccccc1 (stereo not drawn) [16-phenoxy tetranor PGF2α analog, 16-phenoxy tetranor PGF2α] |
| lowest | O=C(O)CCC/C=C\C[C@@H]1[C@@H](/C=C/[C@@H](O)COc2cccc(C(F)(F)F)c2)[C@H](O)C[C@@H]1O [(+) fluprestonol] |
